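Cells were grown in 96-well plates and exposed to each compound for 48 hours at five concentrations; endpoints were interpolated linearly between bracketing concentrations, or set to the highest concentration if not reached. GI50: concentration for 50% inhibition of growth.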 Calls of active or inactive are those of the source. Rule as the data show it: active = GI50 up to about 1.1 µM and inactive = higher.
Assays:
Assay in all cases: NCI anticancer screen, dose series, 48 h
SNB-19 = system: SNB-19
786-0 = system: 786-0
UO-31 = system: UO-31
ACHN = system: ACHN
UACC-257 = system: UACC-257
CAKI-1 = system: CAKI-1
MOLT-4 = system: MOLT-4
EKVX = system: EKVX
KM12 = system: KM12
OVCAR-8 = system: OVCAR-8
SK-MEL-5 = system: SK-MEL-5
HL-60 = system: HL-60
HCT-15 = system: HCT-15
K562 = system: K562
SK-MEL-2 = system: SK-MEL-2
NCI/ADR-RES = system: NCI/ADR-RES
DU-145 = system: DU-145
MDA-MB-435 = system: MDA-MB-435
Hs-578T = system: Hs-578T

| Compound | GI50 (SNB-19) | GI50 (786-0) | GI50 (UO-31) | GI50 (ACHN) | GI50 (UACC-257) | GI50 (CAKI-1) | GI50 (MOLT-4) | GI50 (EKVX) | GI50 (KM12) | GI50 (OVCAR-8) | GI50 (SK-MEL-5) | GI50 (HL-60) | GI50 (HCT-15) [µM] | GI50 (K562) | GI50 (SK-MEL-2) | GI50 (NCI/ADR-RES) | GI50 (DU-145) | GI50 (MDA-MB-435) | GI50 (Hs-578T) |
| --- | --- | --- | --- | --- | --- | --- | --- | --- | --- | --- | --- | --- | --- | --- | --- | --- | --- | --- | --- |
| Cc1ccc(S(=O)(=O)OC2CS[S+]([O-])CC2OS(=O)(=O)c2ccc(C)cc2)cc1 (stereo not drawn) | 17.6 µM (inactive) | 16.8 µM (inactive) | 18.9 µM (inactive) | 17 µM (inactive) | 14.6 µM (inactive) | 12.9 µM (inactive) | 2.23 µM (inactive) | 21.1 µM (inactive) | 17.3 µM (inactive) | 10.6 µM (inactive) | 16 µM (inactive) | 6.01 µM (inactive) | 19 | 4.02 µM (inactive) | – | – | – | – | – |
| C/C(CC(=O)Nc1ccccc1)=N\NC(N)=S | – | > 100 µM (inactive) | > 100 µM (inactive) | – | > 100 µM (inactive) | – | > 100 µM (inactive) | > 100 µM (inactive) | > 100 µM (inactive) | > 100 µM (inactive) | > 100 µM (inactive) | > 100 µM (inactive) | – | > 100 µM (inactive) | > 100 µM (inactive) | – | – | – | – |
| Fc1ccc(C2SCc3nc4ccccc4n32)cc1Cl (stereo not drawn) | 34.4 µM (inactive) | 27.7 µM (inactive) | 16.7 µM (inactive) | 25.5 µM (inactive) | 22.8 µM (inactive) | 13 µM (inactive) | 23.2 µM (inactive) | 24.3 µM (inactive) | 16.1 µM (inactive) | 21.3 µM (inactive) | – | 13.1 µM (inactive) | – | 16.5 µM (inactive) | > 10 µM (inactive) | – | – | – | – |
| N#CC(C(=O)C(=O)C(C#N)c1ccc(Br)cc1)c1ccc(Br)cc1 (stereo not drawn) | 17 µM (inactive) | 12.9 µM (inactive) | 16.3 µM (inactive) | 12.6 µM (inactive) | 11.9 µM (inactive) | 21 µM (inactive) | 4.4 µM (inactive) | 12 µM (inactive) | 10.6 µM (inactive) | – | 14.4 µM (inactive) | 4.06 µM (inactive) | 13.3 | 12.6 µM (inactive) | 13.9 µM (inactive) | – | – | – | – |
| COC1CC(n2cc(F)c(N)nc2=O)OC1CO (stereo not drawn) | > 100 µM (inactive) | > 100 µM (inactive) | > 100 µM (inactive) | > 100 µM (inactive) | > 100 µM (inactive) | > 100 µM (inactive) | > 100 µM (inactive) | > 100 µM (inactive) | > 100 µM (inactive) | > 100 µM (inactive) | > 100 µM (inactive) | > 100 µM (inactive) | > 100 | > 100 µM (inactive) | > 100 µM (inactive) | – | – | – | – |
| C=C(C(=C)P(=S)(C(C)C)C(C)C)P(=S)(C(C)C)C(C)C | > 100 µM (inactive) | > 100 µM (inactive) | > 100 µM (inactive) | > 100 µM (inactive) | > 100 µM (inactive) | > 100 µM (inactive) | > 100 µM (inactive) | > 100 µM (inactive) | > 100 µM (inactive) | > 100 µM (inactive) | > 100 µM (inactive) | > 100 µM (inactive) | > 100 | > 100 µM (inactive) | – | – | – | – | – |
| Nc1nc2c(c(=O)[n-]1)[n+](CCO)cn2C1OC(CO)C(O)C1O (stereo not drawn) | – | > 100 µM (inactive) | > 100 µM (inactive) | > 100 µM (inactive) | > 100 µM (inactive) | > 100 µM (inactive) | – | > 100 µM (inactive) | > 100 µM (inactive) | > 100 µM (inactive) | > 100 µM (inactive) | > 100 µM (inactive) | > 100 | > 100 µM (inactive) | > 100 µM (inactive) | – | – | – | – |
| N#Cc1ccccc1OCCOc1ccccc1C#N | > 100 µM (inactive) | > 100 µM (inactive) | > 100 µM (inactive) | > 100 µM (inactive) | > 100 µM (inactive) | > 100 µM (inactive) | > 100 µM (inactive) | > 100 µM (inactive) | > 100 µM (inactive) | > 100 µM (inactive) | > 100 µM (inactive) | > 100 µM (inactive) | > 100 | 20.3 µM (inactive) | > 100 µM (inactive) | > 100 µM (inactive) | > 100 µM (inactive) | > 100 µM (inactive) | > 100 µM (inactive) |
| COc1cc2c(cc1OC)C1Cc3cc(OC)c(OC)cc3N1CC2 (stereo not drawn) | 36.2 µM (inactive) | 17.7 µM (inactive) | 36.9 µM (inactive) | 22.3 µM (inactive) | 42 µM (inactive) | 21.9 µM (inactive) | 30.8 µM (inactive) | 27.7 µM (inactive) | 28.6 µM (inactive) | 34.8 µM (inactive) | – | 20.9 µM (inactive) | – | 27.5 µM (inactive) | 52.4 µM (inactive) | – | – | – | – |
| CSC(C1c2ccccc2N(c2ccc(C)cc2)C2=NC(=O)N(C)C(=O)C21Cl)S(=O)(=O)c1ccc(C)cc1 (stereo not drawn) | 26.4 µM (inactive) | 18.5 µM (inactive) | 22.4 µM (inactive) | 31.4 µM (inactive) | 23.7 µM (inactive) | 19.8 µM (inactive) | 6.08 µM (inactive) | 35.4 µM (inactive) | – | 27.8 µM (inactive) | 17.3 µM (inactive) | 3.31 µM (inactive) | – | 19.1 µM (inactive) | 18.8 µM (inactive) | – | – | – | – |
| N/N=C(\CCN1CCCC1)CC(c1ccccc1)c1c(O)c2ccccc2oc1=O (stereo not drawn) | > 100 µM (inactive) | > 100 µM (inactive) | – | > 100 µM (inactive) | > 100 µM (inactive) | > 100 µM (inactive) | > 100 µM (inactive) | 44.2 µM (inactive) | > 100 µM (inactive) | > 100 µM (inactive) | > 100 µM (inactive) | > 100 µM (inactive) | > 100 | > 100 µM (inactive) | > 100 µM (inactive) | – | – | – | – |
| O=C(/C=C/c1ccc(Cl)cc1)c1ccncc1 | 98.4 µM (inactive) | 76.2 µM (inactive) | 40.3 µM (inactive) | 35.9 µM (inactive) | 43.5 µM (inactive) | 30.8 µM (inactive) | 27 µM (inactive) | 64.4 µM (inactive) | 26 µM (inactive) | > 100 µM (inactive) | 53.2 µM (inactive) | 32 µM (inactive) | 44.5 | 52.2 µM (inactive) | > 100 µM (inactive) | – | – | – | – |
| O=C(CC1(O)C(=O)Nc2c(Cl)ccc(Cl)c21)c1ccc(Cl)cc1 (stereo not drawn) | 67.8 µM (inactive) | 16.7 µM (inactive) | 34.4 µM (inactive) | 20.8 µM (inactive) | 29.9 µM (inactive) | 51.1 µM (inactive) | – | 95.3 µM (inactive) | 28.4 µM (inactive) | 18.9 µM (inactive) | – | – | 31.4 | – | 25.2 µM (inactive) | – | – | – | – |
| O=C(O)c1c2c(cc3c(=O)c4ccccc4[nH]c13)CCCC2 | 88.5 µM (inactive) | 72.8 µM (inactive) | > 100 µM (inactive) | > 100 µM (inactive) | > 100 µM (inactive) | – | > 100 µM (inactive) | > 100 µM (inactive) | – | > 100 µM (inactive) | – | > 100 µM (inactive) | 62.7 | – | > 100 µM (inactive) | – | – | – | – |
| O=C(N/C(=C\c1ccc(/C=C(\NC(=O)c2ccccc2)c2nc3ccccc3[nH]2)cc1)c1nc2ccccc2[nH]1)c1ccccc1 | > 100 µM (inactive) | > 100 µM (inactive) | > 100 µM (inactive) | > 100 µM (inactive) | > 100 µM (inactive) | > 100 µM (inactive) | > 100 µM (inactive) | > 100 µM (inactive) | – | > 100 µM (inactive) | > 100 µM (inactive) | – | > 100 | > 100 µM (inactive) | > 100 µM (inactive) | – | – | – | – |
| NC(=O)c1csc(C2C=CC(CO)O2)n1 (stereo not drawn) | > 100 µM (inactive) | > 100 µM (inactive) | > 100 µM (inactive) | > 100 µM (inactive) | > 100 µM (inactive) | > 100 µM (inactive) | > 100 µM (inactive) | > 100 µM (inactive) | > 10 µM (inactive) | > 100 µM (inactive) | – | > 100 µM (inactive) | > 100 | > 100 µM (inactive) | > 100 µM (inactive) | – | – | – | – |
| CC(C)c1ccccc1NC(=O)CCc1n[nH]c(=S)o1 | > 100 µM (inactive) | > 100 µM (inactive) | > 100 µM (inactive) | > 81.7 µM (inactive) | > 100 µM (inactive) | > 100 µM (inactive) | > 100 µM (inactive) | > 100 µM (inactive) | > 100 µM (inactive) | > 100 µM (inactive) | > 100 µM (inactive) | > 59.8 µM (inactive) | > 41.7 | > 50.7 µM (inactive) | – | – | – | – | – |
| CN(C)c1ccc(/C=c2/c3ccccc3n3c2cc(NC(=O)NCCC[N+](C)(C)C)[n+]3C)cc1 | 64.1 µM (inactive) | > 100 µM (inactive) | > 100 µM (inactive) | > 100 µM (inactive) | > 100 µM (inactive) | > 100 µM (inactive) | > 100 µM (inactive) | > 100 µM (inactive) | > 100 µM (inactive) | 38.9 µM (inactive) | 47.6 µM (inactive) | 42.9 µM (inactive) | > 100 | 40.6 µM (inactive) | > 100 µM (inactive) | > 100 µM (inactive) | > 100 µM (inactive) | > 100 µM (inactive) | > 100 µM (inactive) |
| COC(=O)C1=C(O)c2cc(-c3ccccc3)c(-c3ccccc3)c(C#N)c2NC(=O)C1 | 20.4 µM (inactive) | 8.38 µM (inactive) | 1.4 µM (inactive) | 24 µM (inactive) | 91.8 µM (inactive) | 7.03 µM (inactive) | 2.46 µM (inactive) | > 100 µM (inactive) | 7.01 µM (inactive) | 4.13 µM (inactive) | – | 1.33 µM (inactive) | 1.55 | 3.27 µM (inactive) | 40.8 µM (inactive) | – | – | – | – |
| O=S(=O)(N/N=C/c1ccc(Cl)cc1Cl)c1ccccc1 | – | > 100 µM (inactive) | > 100 µM (inactive) | > 100 µM (inactive) | > 100 µM (inactive) | 59.4 µM (inactive) | 34.7 µM (inactive) | > 100 µM (inactive) | 51.2 µM (inactive) | 71.4 µM (inactive) | > 100 µM (inactive) | 19.5 µM (inactive) | > 100 | 59 µM (inactive) | > 100 µM (inactive) | – | – | – | – |

Source: ChEMBL document CHEMBL1201862, “PubChem BioAssay data set” (2004)
